Ends that are not written are not given here.
Tests used:
[1] = system: ARPE-19 cells (SOPT1 and SOPT2); type: cell-based, human; conditions: naloxone 1 mM, 15 min preincubation, FITC-hepcidin 2.5 μM
HFE mRNA = HFE mRNA levels, RT-PCR; type: cell-based; conditions: mouse primary RPE; hepcidin 2 μg/ml, 8 h
[2] = system: SOPT1 ([3H]-deltorphin II uptake in mouse RPE cells); assay: Inhibition/stimulation of [3H]-deltorphin II uptake in mouse primary RPE cells; type: cell-based, mouse (C57/Bl6); conditions: [3H]-deltorphin II 20 nM, 30 min
ferroportin = conditions: target cells; ref [14]; cited from earlier work
ferroportin mRNA [3] = assay: Ferroportin mRNA levels, semi-quantitative RT-PCR; type: cell-based; conditions: mouse primary RPE; hepcidin 2 μg/ml, 8 h; HPRT1 internal control
[4] = system: SOPT2 ([3H]-DADLE uptake in RPE cells); assay: Inhibition of [3H]-DADLE uptake in human RPE cells; type: cell-based
hemojuvelin = assay: Hemojuvelin expression; type: cell-based; conditions: mouse RPE; hepcidin treatment; data not shown
transferrin receptor 1 = assay: Transferrin receptor 1 expression; type: cell-based; conditions: mouse RPE; hepcidin treatment; data not shown
[5] = system: SOPT1 ([3H]-deltorphin II uptake in RPE cells); assay: Inhibition of [3H]-deltorphin II uptake in human RPE cells; type: cell-based; conditions: [3H]-deltorphin II 20 nM, 30 min
ferroportin mRNA [6] = assay: Ferroportin mRNA levels, real-time RT-PCR; type: cell-based; conditions: mouse primary RPE; hepcidin 2 μg/ml, 8 h; P < 0.001 (Fig. 4)
transferrin = assay: Transferrin expression; type: cell-based; conditions: mouse RPE; hepcidin treatment; data not shown
[7] = system: SOPT2 ([3H]-DADLE uptake in mouse RPE cells); assay: Inhibition of [3H]-DADLE uptake in mouse primary RPE cells; type: cell-based, mouse (C57/Bl6); conditions: hepcidin 25 μM, [3H]-DADLE 10 nM, 30 min
SOPT1 = conditions: ref [2]; cited from earlier work
SOPT1 and SOPT2 = conditions: ref [5]; cited from earlier work

C=CCN1CC[C@]23c4c5ccc(O)c4O[C@H]2C(=O)CC[C@@]3(O)[C@H]1C5 [naloxone]
effect on FITC-hepcidin uptake (flow cytometry) [1]: did not alter the uptake

DTHFPICIFCCGCCHRSKCGYCCKT (cysteine pairing not given here) [hepcidin]
HFE mRNA levels (HFE mRNA): no effect on HFE mRNA levels
inhibition of deltorphin II uptake ([2]; hepcidin 25 μM, mouse primary RPE): almost completely inhibited
binding to ferroportin with internalization and degradation (ferroportin): binds to ferroportin on target cells and that this complex gets internalized with subsequent degradation
ferroportin mRNA levels (RT-PCR) (ferroportin mRNA [3]): significant reduction in ferroportin mRNA levels
dose dependence of DADLE uptake inhibition ([4]; [3H]-DADLE 10 nM, 30 min, Fig. 1C): dose-dependent
hemojuvelin expression (hemojuvelin): none of these genes was altered
transferrin receptor 1 expression (transferrin receptor 1): none of these genes was altered
dose dependence of deltorphin II uptake inhibition ([5]; RPE cells, Fig. 1B): dose-dependent
IC50 ([5]; read-out: IC50, inhibition of deltorphin II uptake, ARPE-19 cells, 25 mM HEPES/Tris pH 7.5, 140 mM NaCl, means ± S.E., three independent experiments in duplicate): 0.42 ± 0.12 µM
ferroportin mRNA levels (real-time RT-PCR) (ferroportin mRNA [6]): decrease in ferroportin mRNA levels was confirmed
transferrin expression (transferrin): none of these genes was altered
inhibition of DADLE uptake [7]: almost completely inhibited

Gly-Gly-Ile
effect on deltorphin II uptake (stimulation) ([2]; mouse RPE cells, Gly-Gly-Ile 1 mM): stimulated deltorphin II uptake
stimulation of SOPT1 (SOPT1): potent stimulator of SOPT1

HIV-Tat47–57: exogenous oligopeptide recognized by SOPT1 and SOPT2 (YGRKKRRQRRR; Tat; UniProt P04608 47-57, looked up, fragment)
recognition by SOPT1 and SOPT2 (SOPT1 and SOPT2): recognize

[tyrosyl-3,5–^3H(N)]DADLE [[^3H]-DADLE]
non-mediated diffusional component of uptake ([4]; [3H]-DADLE uptake in presence of 1 mM unlabeled DADLE, pH 7.5): < 5 % of measured total uptake

From PMC3060409 (Biochemical and biophysical research communications, 2011)
